Common to all, as to type: cell-based
Test [1] deals with T1, human TLR9 (Homo sapiens, UniProt Q9NR96).
T1 construct: host or cells: HEK-Blue cells
T1 sequence (Q9NR96 26-1032): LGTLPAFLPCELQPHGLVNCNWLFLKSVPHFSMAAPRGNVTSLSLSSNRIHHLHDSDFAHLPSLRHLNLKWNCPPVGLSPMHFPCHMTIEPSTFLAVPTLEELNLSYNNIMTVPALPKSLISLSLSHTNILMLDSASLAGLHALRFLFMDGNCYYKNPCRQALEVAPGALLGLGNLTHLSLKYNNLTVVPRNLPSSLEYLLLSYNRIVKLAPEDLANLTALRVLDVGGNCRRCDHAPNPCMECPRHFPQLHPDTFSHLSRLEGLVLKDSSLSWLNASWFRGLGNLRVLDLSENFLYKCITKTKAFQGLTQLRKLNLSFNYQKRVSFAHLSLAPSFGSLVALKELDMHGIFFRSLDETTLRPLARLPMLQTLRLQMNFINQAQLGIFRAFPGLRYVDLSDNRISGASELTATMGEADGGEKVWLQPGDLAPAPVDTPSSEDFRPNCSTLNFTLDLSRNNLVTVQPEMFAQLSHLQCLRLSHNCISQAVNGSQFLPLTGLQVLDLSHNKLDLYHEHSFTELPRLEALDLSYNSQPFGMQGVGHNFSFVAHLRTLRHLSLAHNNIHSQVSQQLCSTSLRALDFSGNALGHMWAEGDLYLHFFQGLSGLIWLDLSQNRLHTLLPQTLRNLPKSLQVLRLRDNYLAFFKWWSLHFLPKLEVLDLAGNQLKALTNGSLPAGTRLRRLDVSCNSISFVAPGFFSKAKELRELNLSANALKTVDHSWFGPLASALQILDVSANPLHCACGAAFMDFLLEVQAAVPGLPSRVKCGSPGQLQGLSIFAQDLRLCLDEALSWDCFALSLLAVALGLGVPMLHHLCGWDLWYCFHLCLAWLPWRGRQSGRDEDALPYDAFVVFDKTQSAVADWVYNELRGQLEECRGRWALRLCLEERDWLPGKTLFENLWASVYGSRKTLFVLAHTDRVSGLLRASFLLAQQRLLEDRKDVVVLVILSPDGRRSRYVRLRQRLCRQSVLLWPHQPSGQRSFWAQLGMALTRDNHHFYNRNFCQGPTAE
In words: TLR9 inhibition reporter assay (HEK-Blue SEAP). Particulars: HEK-Blue cells overexpressing human TLR9, stimulated with ODN2006 5 nM, 22 hour incubation. In short, it runs like this:
(§1)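 Test compounds, final 0.05 nM–50 μM, pre-treat HEK-Blue human TLR7, TLR8 or TLR9 reporter cells before agonist addition (TLR8 R848 15.9 μM; TLR7 gardiquimod 7.5 μM; TLR9 ODN2006 5 nM). Incubation runs 22 h, 37 °C. SEAP detection gives percent inhibition against DMSO and reference-inhibitor controls.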

Test [2] deals with T2, human TLR7 (Homo sapiens, UniProt Q9NYK1).
T2 construct: host or cells: HEK-Blue cells
T2 sequence (Q9NYK1 27-1049): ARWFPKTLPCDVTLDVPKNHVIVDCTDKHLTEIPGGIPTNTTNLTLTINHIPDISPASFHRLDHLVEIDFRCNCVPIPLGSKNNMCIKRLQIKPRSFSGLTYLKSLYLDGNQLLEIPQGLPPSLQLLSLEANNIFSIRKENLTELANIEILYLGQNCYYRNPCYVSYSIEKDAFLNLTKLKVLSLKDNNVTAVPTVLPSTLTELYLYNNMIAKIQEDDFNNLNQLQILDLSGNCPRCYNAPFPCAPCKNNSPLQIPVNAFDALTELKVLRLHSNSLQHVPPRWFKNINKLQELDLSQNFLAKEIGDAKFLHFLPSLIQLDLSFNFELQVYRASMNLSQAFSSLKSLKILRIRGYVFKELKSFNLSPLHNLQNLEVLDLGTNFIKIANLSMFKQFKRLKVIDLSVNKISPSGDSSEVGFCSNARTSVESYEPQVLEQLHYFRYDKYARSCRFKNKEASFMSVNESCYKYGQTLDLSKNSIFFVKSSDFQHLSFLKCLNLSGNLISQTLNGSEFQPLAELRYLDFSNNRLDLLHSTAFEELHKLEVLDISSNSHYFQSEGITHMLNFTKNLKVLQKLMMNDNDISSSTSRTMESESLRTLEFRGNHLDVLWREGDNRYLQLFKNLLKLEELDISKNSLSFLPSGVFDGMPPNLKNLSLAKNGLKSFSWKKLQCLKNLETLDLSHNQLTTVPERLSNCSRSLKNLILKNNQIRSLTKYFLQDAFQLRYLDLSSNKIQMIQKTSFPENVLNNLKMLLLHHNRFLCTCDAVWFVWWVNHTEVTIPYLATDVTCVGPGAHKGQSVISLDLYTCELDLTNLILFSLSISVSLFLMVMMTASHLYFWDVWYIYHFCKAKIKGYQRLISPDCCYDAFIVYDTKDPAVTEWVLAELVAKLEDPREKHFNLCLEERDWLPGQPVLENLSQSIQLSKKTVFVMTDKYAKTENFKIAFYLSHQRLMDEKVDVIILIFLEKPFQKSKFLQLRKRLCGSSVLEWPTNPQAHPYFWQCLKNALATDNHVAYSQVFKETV
In words: TLR7 inhibition reporter assay (HEK-Blue SEAP). Particulars: HEK-Blue cells overexpressing human TLR7, stimulated with gardiquimod 7.5 μM, 22 hour incubation. The gist of the method:
as §1
For orientation: A reporter such as luciferase makes a cellular process visible.

Test [3] deals with T3, human TLR8 (Homo sapiens, UniProt Q9NR97).
T3 construct: host or cells: HEK-Blue cells
T3 sequence (Q9NR97 27-1041): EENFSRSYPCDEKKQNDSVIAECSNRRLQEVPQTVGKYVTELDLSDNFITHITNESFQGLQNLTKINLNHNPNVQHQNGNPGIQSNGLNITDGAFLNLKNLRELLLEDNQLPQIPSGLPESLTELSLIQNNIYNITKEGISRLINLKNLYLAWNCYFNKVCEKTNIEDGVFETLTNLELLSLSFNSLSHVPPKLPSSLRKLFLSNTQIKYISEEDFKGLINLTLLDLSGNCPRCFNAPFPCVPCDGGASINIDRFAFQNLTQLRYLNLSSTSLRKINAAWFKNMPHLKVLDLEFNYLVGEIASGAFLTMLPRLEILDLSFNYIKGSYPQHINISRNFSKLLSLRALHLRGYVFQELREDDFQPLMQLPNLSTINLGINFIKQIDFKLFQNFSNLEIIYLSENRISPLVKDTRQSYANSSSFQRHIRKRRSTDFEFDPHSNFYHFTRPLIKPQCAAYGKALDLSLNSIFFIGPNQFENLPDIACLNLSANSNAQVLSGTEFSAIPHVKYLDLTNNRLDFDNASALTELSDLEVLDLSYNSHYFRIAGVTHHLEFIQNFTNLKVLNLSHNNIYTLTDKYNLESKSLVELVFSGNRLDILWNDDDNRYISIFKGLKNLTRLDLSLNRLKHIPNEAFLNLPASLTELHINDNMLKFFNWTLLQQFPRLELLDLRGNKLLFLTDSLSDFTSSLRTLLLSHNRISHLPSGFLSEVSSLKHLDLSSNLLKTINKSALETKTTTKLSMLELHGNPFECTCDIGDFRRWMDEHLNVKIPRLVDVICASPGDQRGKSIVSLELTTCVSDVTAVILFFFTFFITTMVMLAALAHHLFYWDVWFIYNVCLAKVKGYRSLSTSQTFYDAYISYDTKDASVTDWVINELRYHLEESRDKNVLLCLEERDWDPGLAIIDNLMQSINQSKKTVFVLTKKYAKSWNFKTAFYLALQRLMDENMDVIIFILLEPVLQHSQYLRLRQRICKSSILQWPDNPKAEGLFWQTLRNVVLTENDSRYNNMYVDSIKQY
The experiment in a line: TLR8 inhibition reporter assay (HEK-Blue SEAP). The conditions noted are these: HEK-Blue cells overexpressing human TLR8, stimulated with R848 15.9 μM, 22 hour incubation. In short, it runs like this: as §1

Molecules are shown by their SMILES. Bounds are passed on as bounds.

In general, IC50 refers to the concentration needed to halve the response being measured. Read a low IC50 as inhibition by little substance. Take `Cc1cc(-c2[nH]c3ccc(OCC(=O)N4CCCC5(CNC5)C4)cc3c2C(C)C)ccn1` [Example 140, 2-((3-isopropyl-2-(2-methylpyridin-4-yl)-1H-indol-5-yl)oxy)-1-(2,6-diazaspiro[3.5]nonan-6-yl)ethan-1-one]: the IC50 in test [1] worked out at 886 nM; in test [2], 629 nM; in test [3], 216 nM.

For the compound `Cc1cc(-c2[nH]c3ccc(OCC(=O)N4CC5(CCNCC5)C4)cc3c2C(C)C)ccn1` [Example 141, 2-((3-isopropyl-2-(2-methylpyridin-4-yl)-1H-indol-5-yl)oxy)-1-(2,7-diazaspiro[3.5]nonan-2-yl)ethan-1-one], the IC50 was 625 nM in test [1], 427 nM in test [2] and 186 nM in test [3].

Turning to `Cc1cc(-c2[nH]c3ccc(OCC(=O)NC4CCC5CNCC54)cc3c2C(C)C)ccn1` (stereo not drawn) [Example 142, 2-((3-isopropyl-2-(2-methylpyridin-4-yl)-1H-indol-5-yl)oxy)-N-(octahydrocyclopenta[c]pyrrol-4-yl)acetamide], the values for the IC50 in test [1], in test [2] and in test [3] were 383 nM, 349 nM and 78.4 nM, respectively.

Turning to `Cc1cc(-c2[nH]c3ccc(OCC(=O)N4CCCCC4C4CCNCC4)cc3c2C(C)C)ccn1` (stereo not drawn) [Example 143, 1-([2,4′-bipiperidin]-1-yl)-2-((3-isopropyl-2-(2-methylpyridin-4-yl)-1H-indol-5-yl)oxy)ethan-1-one], the IC50 was determined as 354 nM in test [1], 330 nM in test [2] and 220 nM in test [3].

With `Cc1cc(-c2[nH]c3ccc(OCC(=O)N4CCC5(CCNCC5)C4)cc3c2C(C)C)ccn1` [Example 144, 2-((3-isopropyl-2-(2-methylpyridin-4-yl)-1H-indol-5-yl)oxy)-1-(2,8-diazaspiro[4.5]decan-2-yl)ethan-1-one], the results for the 50% inhibitory concentration (IC50) in test [1], in test [2] and in test [3] were 296 nM, 917 nM and 176 nM, respectively.

Regarding `Cc1cc(-c2[nH]c3ccc(OCC(=O)N4CC5CNCC5C4)cc3c2C(C)C)ccn1` (stereo not drawn) [Example 145, 1-(hexahydropyrrolo[3,4-c]pyrrol-2(H)-yl)-2-((3-isopropyl-2-(2-methylpyridin-4-yl)-1H-indol-5-yl)oxy)ethan-1-one], the figures for the IC50 in test [1], in test [2] and in test [3] were 260 nM, 315 nM and 137 nM, respectively.

Turning to `Cc1cc(-c2[nH]c3ccc(OCC(=O)NCCC4CCCNC4)cc3c2C(C)C)ccn1` (stereo not drawn) [Example 146, 2-((3-isopropyl-2-(2-methylpyridin-4-yl)-1H-indol-5-yl)oxy)-N-(2-(piperidin-3-yl)ethyl)acetamide], the results for the IC50 in test [1], in test [2] and in test [3] were 937 nM, 771 nM and 98.4 nM, respectively.

Consider `Cc1cc(-c2[nH]c3ccc(OCC(=O)N4CCC(CN)CC4)cc3c2C(C)C)ccn1` [Example 147, 1-(4-(aminomethyl)piperidin-1-yl)-2-((3-isopropyl-2-(2-methylpyridin-4-yl)-1H-indol-5-yl)oxy)ethan-1-one], for which the figures for the IC50 in test [1], in test [2] and in test [3] were 1540 nM, 1200 nM and 474 nM, respectively.

As to `Cc1cc(-c2[nH]c3ccc(OCC(=O)N(C)C4CCNCC4)cc3c2C(C)C)ccn1` [Example 148, 2-((3-isopropyl-2-(2-methylpyridin-4-yl)-1H-indol-5-yl)oxy)-N-methyl-N-(piperidin-4-yl) acetamide], the IC50 in test [1] came to 172 nM; in test [2], 142 nM; in test [3], 51.4 nM.

For `Cc1cc(-c2[nH]c3ccc(OCC(=O)N4CC5CN(C)CC5C4)cc3c2C(C)C)ccn1` (stereo not drawn) [Example 149, 2-((3-isopropyl-2-(2-methylpyridin-4-yl)-1H-indol-5-yl)oxy)-1-(5-methylhexahydropyrrolo[3,4-c]pyrrol-2(1H)-yl)ethan-1-one], the IC50 in test [1] was 410 nM; in test [2], 119 nM; in test [3] it was 23.8 nM.

Turning to `COc1ccc(-c2[nH]c3ccc(OCC(=O)NCC(C)(C)O)cc3c2C(C)C)cc1OC` [Example 150, 2-((2-(3,4-dimethoxyphenyl)-3-isopropyl-1H-indol-5-yl)oxy)-N-(2-hydroxy-2-methylpropyl)acetamide], the figures for the IC50 in test [1], in test [2] and in test [3] were over 50000 nM, 302 nM and 947 nM, respectively.

For the compound `Cc1cc(-c2[nH]c3ccc(OCC(=O)NCC(C)(C)O)cc3c2C(C)C)ccn1` [Example 151, N-(2-hydroxy-2-methylpropyl)-2-((3-isopropyl-2-(2-methylpyridin-4-yl)-1H-indol-5-yl)oxy)acetamide], the IC50 in test [1] is over 50000 nM; in test [2], 404 nM; in test [3], 561 nM.

In the case of `Cc1cc(-c2[nH]c3ccc(OCC(=O)NC[C@@H](F)C(C)(C)O)cc3c2C(C)C)ccn1` [Example 152, (R)—N-(2-fluoro-3-hydroxy-3-methylbutyl)-2-((3-isopropyl-2-(2-methylpyridin-4-yl)-1H-indol-5-yl)oxy)acetamide], the IC50 is over 50000 nM in test [1], 1000 nM in test [2] and 774 nM in test [3].

Values taken from patent US12030878B2 (BRISTOL-MYERS SQUIBB COMPANY, priority 2017, dated 2024).
